12 compounds from ChEMBL document CHEMBL2016447, “Cyclopropyl Carboxamides: A New Oral Antimalarial Series Derived from the Tres Cantos Anti-Malarial Set (TCAMS)” (ACS Med Chem Lett, 2011) can be followed below.

≈ marks a conversion by molar mass, not a printed value. Calls of active or inactive are those of the source. No cut-off for these calls is given here.

The test system of data set [1] is Plasmodium falciparum. Kind of data set: Antiplasmodial activity against Plasmodium falciparum 3D7 by parasite lactate dehydrogenase assay. The data set is classed as functional, organism-based.
Data set [2] concerns Plasmodium falciparum. In words: Antiplasmodial activity against Plasmodium falciparum 3D7 infected in human erythrocytes assessed as inhibition of [3H]hypoxanthine incorporation after 24 hrs by microbeta counter. The data set is classed as functional, organism-based.
A short description of data set [3]: Half life in human liver microsomes at 100 uM by HPLC analysis. It counts as ADME, Microsome. (Liver microsomes are vesicles of endoplasmic reticulum, rich in cytochrome P450 enzymes.)
The subject of a further data set is Liver. In words: Intrinsic clearance in mouse liver microsomes assessed per gram of protein at 100 uM by HPLC analysis. It counts as ADME, Microsome.
A short description of data set [4]: Half life in mouse liver microsomes at 100 uM by HPLC analysis. The data set is classed as ADME, Microsome.
The next data set deals with Liver microsomes. In words: Intrinsic clearance in human liver microsomes assessed per gram of protein at 100 uM by HPLC analysis. It counts as ADME, Microsome.
Data set [5] in a line: Lipophilicity, log D of the compound by chromatographic hydrophobicity index assay. The data set is classed as physicochemical.
A short description of data set [6]: Solubility of the compound in DMSO by chemiluminescent nitrogen detection assay. The data set is classed as physicochemical.
The target of a further data set is Cytochrome P450 3A4 (Homo sapiens, UniProt P08684). Kind of data set: Inhibition of CYP3A4. It counts as ADME.
Sequence of Cytochrome P450 3A4 (P08684 whole entry): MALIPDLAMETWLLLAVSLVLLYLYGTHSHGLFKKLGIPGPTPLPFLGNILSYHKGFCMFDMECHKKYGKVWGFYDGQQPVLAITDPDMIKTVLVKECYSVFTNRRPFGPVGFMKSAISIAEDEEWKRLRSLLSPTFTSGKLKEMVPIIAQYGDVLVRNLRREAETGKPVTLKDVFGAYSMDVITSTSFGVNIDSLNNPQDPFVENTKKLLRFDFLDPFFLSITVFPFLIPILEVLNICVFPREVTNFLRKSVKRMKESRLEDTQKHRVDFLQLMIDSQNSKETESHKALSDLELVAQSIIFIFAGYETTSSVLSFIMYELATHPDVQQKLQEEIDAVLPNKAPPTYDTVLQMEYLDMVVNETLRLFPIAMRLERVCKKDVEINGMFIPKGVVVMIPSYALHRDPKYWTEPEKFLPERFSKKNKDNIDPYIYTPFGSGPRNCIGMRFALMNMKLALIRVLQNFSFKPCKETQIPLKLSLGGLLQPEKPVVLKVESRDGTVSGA
A short description of data set [7]: Volume of distribution in CD1 mouse at 2 mg/kg, iv and 20 mg/kg, po by LC/MS analysis. It counts as ADME, organism-based. The settings on record: in vivo.
The target in data set [8] is T1, Nuclear receptor subfamily 1 group I member 2 (Homo sapiens, UniProt O75469).
T1 sequence (O75469 whole entry): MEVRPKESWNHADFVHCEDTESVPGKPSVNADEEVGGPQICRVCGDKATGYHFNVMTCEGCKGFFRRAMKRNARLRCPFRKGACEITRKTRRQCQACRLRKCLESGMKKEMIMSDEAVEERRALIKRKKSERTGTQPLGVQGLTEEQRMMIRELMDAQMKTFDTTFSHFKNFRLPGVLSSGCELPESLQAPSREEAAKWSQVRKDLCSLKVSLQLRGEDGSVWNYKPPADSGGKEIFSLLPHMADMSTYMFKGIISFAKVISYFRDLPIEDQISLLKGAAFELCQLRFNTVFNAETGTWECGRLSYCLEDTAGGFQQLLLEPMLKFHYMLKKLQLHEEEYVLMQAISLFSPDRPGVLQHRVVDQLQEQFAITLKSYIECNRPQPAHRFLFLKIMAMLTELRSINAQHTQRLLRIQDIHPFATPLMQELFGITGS
Kind of data set: Activity at PXR at 2.5 uM.

The target of data set [9] is 3',5'-cyclic-AMP phosphodiesterase 4B (Homo sapiens) (UniProt Q07343). Kind of data set: Activity of PDE4B at 0.3 uM.
Sequence of 3',5'-cyclic-AMP phosphodiesterase 4B (Homo sapiens) (Q07343 whole entry): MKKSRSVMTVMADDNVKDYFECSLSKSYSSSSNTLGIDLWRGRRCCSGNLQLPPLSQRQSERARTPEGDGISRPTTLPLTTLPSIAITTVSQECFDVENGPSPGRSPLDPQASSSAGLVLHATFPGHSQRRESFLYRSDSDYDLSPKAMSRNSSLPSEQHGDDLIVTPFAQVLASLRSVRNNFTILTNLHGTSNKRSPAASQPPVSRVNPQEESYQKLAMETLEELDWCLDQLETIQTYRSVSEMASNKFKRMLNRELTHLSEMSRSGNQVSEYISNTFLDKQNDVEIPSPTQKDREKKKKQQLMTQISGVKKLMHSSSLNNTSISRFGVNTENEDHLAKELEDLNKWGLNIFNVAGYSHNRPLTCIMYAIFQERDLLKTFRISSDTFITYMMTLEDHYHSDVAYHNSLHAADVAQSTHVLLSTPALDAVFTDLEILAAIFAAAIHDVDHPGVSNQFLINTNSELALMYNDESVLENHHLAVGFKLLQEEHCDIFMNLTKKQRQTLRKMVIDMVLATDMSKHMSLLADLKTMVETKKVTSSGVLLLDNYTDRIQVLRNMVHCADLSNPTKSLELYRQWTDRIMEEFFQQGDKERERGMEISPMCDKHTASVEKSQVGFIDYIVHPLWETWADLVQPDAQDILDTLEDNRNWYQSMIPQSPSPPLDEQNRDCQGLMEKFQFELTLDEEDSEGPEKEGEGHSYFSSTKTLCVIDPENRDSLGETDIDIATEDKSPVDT
Data set [10] can be described thus: Oral bioavailability in CD1 mouse at 20 mg/kg administered with 1% methylcellulose in water by LC/MS analysis. The data set is classed as ADME, organism-based. The settings on record: in vivo.
The target of a further data set is Cytochrome P450 2D6 (Homo sapiens, UniProt P10635). Kind of data set: Inhibition of CYP2D6. The data set is classed as ADME.
Sequence of Cytochrome P450 2D6 (P10635 whole entry): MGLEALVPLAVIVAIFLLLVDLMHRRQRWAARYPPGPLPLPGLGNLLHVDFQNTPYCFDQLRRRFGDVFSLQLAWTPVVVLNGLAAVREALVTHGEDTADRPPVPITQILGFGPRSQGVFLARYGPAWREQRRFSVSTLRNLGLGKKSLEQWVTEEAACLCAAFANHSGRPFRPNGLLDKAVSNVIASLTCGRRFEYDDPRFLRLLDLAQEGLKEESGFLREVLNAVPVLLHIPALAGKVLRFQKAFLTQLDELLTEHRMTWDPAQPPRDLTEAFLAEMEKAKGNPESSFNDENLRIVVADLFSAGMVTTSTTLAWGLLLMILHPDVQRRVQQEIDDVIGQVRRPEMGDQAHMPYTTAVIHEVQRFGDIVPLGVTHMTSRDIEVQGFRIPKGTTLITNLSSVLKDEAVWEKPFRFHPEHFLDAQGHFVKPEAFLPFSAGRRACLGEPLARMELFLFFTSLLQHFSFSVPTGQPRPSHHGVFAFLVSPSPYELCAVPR
The nature of data set [11]: Cmax in CD1 mouse at 20 mg/kg, po administered with 1% methylcellulose in water by LC/MS analysis. The conditions noted are these: in vivo. It counts as ADME, organism-based. Set-up: dose 20 mg/kg, route oral.
For data set [12], the system named is Plasmodium falciparum. In words: Antiplasmodial activity Plasmodium falciparum 3D70087/N9 infected in NODscidIL2Rgammac-/- mouse assessed as reduction of parasitemia administered 3 days after infection measured on day 3 to 7 by flow cytometry. The data set is classed as functional. The settings on record: 3D70087/N9, 72 h.
Data set [13] has as its system Mus musculus. In words: AUC (0 to t) in CD1 mouse at 20 mg/kg, po administered with 1% methylcellulose in water by LC/MS analysis. It counts as ADME, organism-based. The conditions noted are these: in vivo. Set-up: dose 20 mg/kg, route oral.
Data set [14] is described as follows: Clearance in CD1 mouse at 2 mg/kg, iv and 20 mg/kg, po by LC/MS analysis. It counts as ADME, organism-based. The settings on record: in vivo.
Data set [15] relates to Mus musculus. Kind of data set: AUC (0 to t) in CD1 mouse at 2 mg/kg, iv administered with 3% solutol, 7% PEG in saline by LC/MS analysis. The data set is classed as ADME, organism-based, Plasma. Set-up: dose 2 mg/kg, route intravenous. The settings on record: in vivo.
Data set [16] deals with T1, Nuclear receptor subfamily 1 group I member 2. In words: Activity at PXR at 1 uM.
The target in another data set is Cytochrome P450 2C19 (Homo sapiens, UniProt P33261). In words: Inhibition of CYP2C19. The data set is classed as ADME.
Sequence of Cytochrome P450 2C19 (P33261 whole entry): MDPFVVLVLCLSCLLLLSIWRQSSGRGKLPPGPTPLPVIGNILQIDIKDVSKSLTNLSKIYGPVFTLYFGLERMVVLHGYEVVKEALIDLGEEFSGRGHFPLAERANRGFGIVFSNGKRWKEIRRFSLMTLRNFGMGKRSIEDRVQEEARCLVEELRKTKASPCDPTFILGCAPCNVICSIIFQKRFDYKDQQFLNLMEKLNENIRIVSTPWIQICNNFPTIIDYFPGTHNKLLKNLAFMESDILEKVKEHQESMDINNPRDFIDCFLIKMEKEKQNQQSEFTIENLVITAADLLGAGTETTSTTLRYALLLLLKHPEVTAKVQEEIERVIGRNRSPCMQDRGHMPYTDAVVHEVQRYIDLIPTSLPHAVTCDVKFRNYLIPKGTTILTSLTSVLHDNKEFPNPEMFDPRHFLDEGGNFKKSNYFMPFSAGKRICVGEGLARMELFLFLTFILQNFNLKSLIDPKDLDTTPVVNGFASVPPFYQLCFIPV
Data set [17] can be described thus: Protein binding in mouse plasma. The data set is classed as ADME, cell-free. The settings on record: read-out: PPB (converted).
Data set [18] in a line: Half life in CD1 mouse at 2 mg/kg, iv administered with 3% solutol, 7% PEG in saline by LC/MS analysis. It counts as ADME, organism-based. Details: dose 2 mg/kg, route intravenous. The conditions noted are these: in vivo.
The target in another data set is Cytochrome P450 2C9 (Homo sapiens, UniProt P11712). Kind of data set: Inhibition of CYP2C9. It counts as ADME.
Sequence of Cytochrome P450 2C9 (P11712 whole entry): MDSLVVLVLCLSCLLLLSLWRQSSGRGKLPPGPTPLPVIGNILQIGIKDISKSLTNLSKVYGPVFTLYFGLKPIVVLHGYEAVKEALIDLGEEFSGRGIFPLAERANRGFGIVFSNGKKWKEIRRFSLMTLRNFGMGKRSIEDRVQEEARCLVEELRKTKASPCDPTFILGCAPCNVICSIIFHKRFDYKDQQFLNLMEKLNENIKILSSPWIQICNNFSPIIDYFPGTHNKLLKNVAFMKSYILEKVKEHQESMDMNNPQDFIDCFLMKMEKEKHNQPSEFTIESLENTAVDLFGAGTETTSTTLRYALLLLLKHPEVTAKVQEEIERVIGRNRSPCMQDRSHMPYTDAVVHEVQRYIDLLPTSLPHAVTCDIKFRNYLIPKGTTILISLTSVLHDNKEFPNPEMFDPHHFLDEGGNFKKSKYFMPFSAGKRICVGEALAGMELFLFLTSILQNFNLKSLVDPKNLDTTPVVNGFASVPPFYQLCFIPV
The nature of data set [19]: Clearance in CD1 mouse at 2 mg/kg, iv and 20 mg/kg, po by LC/MS analysis. The conditions noted are these: in vivo.
Data set [20] deals with Mus musculus. In words: AUC (0 to t) in CD1 mouse at 2 mg/kg, iv administered with 20% encapsine in water by LC/MS analysis. The conditions noted are these: in vivo.
Data set [21] can be described thus: Protein binding in human plasma. The data set is classed as ADME, cell-free. The conditions noted are these: read-out: PPB.
The nature of data set [22]: Half life in CD1 mouse at 2 mg/kg, iv administered with 20% encapsine in water by LC/MS analysis. The settings on record: in vivo.
Data set [23] is described as follows: Volume of distribution in CD1 mouse at 2 mg/kg, iv and 20 mg/kg, po by LC/MS analysis. The conditions noted are these: in vivo.

As for `Cc1ccnc2nc(C(=O)Nc3cc(C(F)(F)F)ccc3N3CCCCC3)nn12`, the IC50 (usually the point on the concentration scale where inhibition reaches its midpoint) in the data set on Plasmodium falciparum [1] turned out to be 73 nM; in the data set on Plasmodium falciparum [2], 3970 nM.
As for `Cc1cc(C)n2nc(C(=O)Nc3cc(C(F)(F)F)ccc3N3CCOCC3)nc2n1`, the IC50 was 11 nM in the data set on Plasmodium falciparum [1] and above 5000 nM in the data set with Plasmodium falciparum [2].
Regarding `CC(Oc1ccc(Cl)cc1)C(=O)Nc1cc(C(F)(F)F)ccc1-n1cncn1` (racemic), the half-life (commonly how long it takes for the measured level to halve) at 100 µM in [3] was 21.8 min; in data set [4], 13.6 min. Further, the CLint worked out at 4.1 mL/min/g in the data set on Liver and 3.3 mL/min/g in the data set with Liver microsomes. Further, the concentration for half-maximal inhibition (IC50) in the data set on Plasmodium falciparum [2] was found to be 394 nM. In addition, the chromatographic logD – broadly, lipophilicity estimated from chromatographic retention – in data set [5] amounted to 3.84.
For the compound `CC(Oc1ccc(Cl)cc1)C(=O)Nc1cc(C(F)(F)F)ccc1N1CCOCC1` (racemic), the half-maximal inhibitory concentration (IC50) in the data set on Plasmodium falciparum [2] came out at 439 nM. Moreover, in data set [5], the chromatographic logD came to 4.56.
`CC(Oc1cccc(C(F)(F)F)c1)C(=O)Nc1cc(C(F)(F)F)ccc1-n1cncn1` (racemic): in the data set on Plasmodium falciparum [2], the half-maximal inhibitory concentration (IC50) stood at 285 nM.
For `O=C(Nc1cc(Cl)ccc1-n1cncn1)C1(c2ccccc2)CC1`, in the data set on Plasmodium falciparum [2], the IC50 turned out to be 1700 nM.
For the compound `CC(Oc1cccc(Cl)c1)C(=O)Nc1cc(C(F)(F)F)ccc1-n1cncn1` (racemic), the half-life at 100 µM in data set [3] is above 30 min; in [4] it was 6.2 min. Further, the CLint came to 7.9 mL/min/g in the data set with Liver and 1.2 mL/min/g in the data set on Liver microsomes. Also, the IC50 in the data set on Plasmodium falciparum [2] is 327 nM.
`O=C(Nc1cc(C(F)(F)F)ccc1-n1cncn1)C1(c2cccc(C(F)(F)F)c2)CC1`: in data set [6], the concentration in solution (solubility) was 9 µM (≈ 3.96 µg/mL). The INH at Cytochrome P450 3A4 is above 10 µM; at Cytochrome P450 2D6, above 10 µM; on Cytochrome P450 2C19, above 10 µM; on Cytochrome P450 2C9 it was 6.3 µM. Moreover, the Vd in [7] was found to be 11.9 L/kg. Moreover, the result in data set [8] and in [16] was Active. In data set [9], the outcome was Active. Moreover, the bioavailability (commonly the share of a dose that reaches the circulation, judged against a reference dose that is usually intravenous) in [10] worked out at 55%. For the same compound, in data set [11], the Cmax (commonly the highest concentration seen after dosing) came to 1090 ng/mL. The ED50 (commonly the dose at which the effect has come halfway, by size or by number of responders) in the data set on Plasmodium falciparum [12] was found to be 12 mg/kg. In the data set on Plasmodium falciparum [12], the ED90 is 20 mg/kg. The AUCt in the data set on Mus musculus [13] was found to be 13.6 µg/h/mL; in the data set with Mus musculus [15], 2.23 µg/h/mL. For the same compound, the clearance in data set [14] worked out at 14.3 mL/min/kg. Also, the fraction unbound in data set [17] is 0.006. The same compound had a half-life in data set [18] of 612 min.
With `CCN(CC)CCCC(C)Nc1ccnc2cc(Cl)ccc12` (configuration not stated) [CHLOROQUINE], the ED50 with Plasmodium falciparum [12] was 2 mg/kg.
In the case of `CC(Oc1ccccc1Cl)C(=O)Nc1cc(C(F)(F)F)ccc1-n1cncn1` (racemic), the half-life at 100 µM was above 30 min in data set [3] and 11.7 min in data set [4]. Further, the CLint with Liver is 5.6 mL/min/g; with Liver microsomes, 1.6 mL/min/g. In addition, in the data set on Plasmodium falciparum [2], the IC50 came to 190 nM.
On to `O=C(Nc1cc(C(F)(F)F)ccc1-n1cncn1)C1(c2ccccc2)CC1`, for which the concentration in solution in data set [6] (solubility) was 100 µM (≈ 37.2 µg/mL). Also, the clearance in [19] is 29.7 mL/min/kg. The INH is above 10 µM on Cytochrome P450 3A4, above 10 µM on Cytochrome P450 2D6, above 10 µM on Cytochrome P450 2C19 and 7.9 µM at Cytochrome P450 2C9. Further, the outcome in data set [8] was Active. Moreover, in data set [10], the bioavailability was 81%. In addition, the highest level in data set [11] (Cmax) was 2340 ng/mL. The AUCt with Mus musculus [20] was 0.596 µg/h/mL; with Mus musculus [13] it was 9.71 µg/h/mL. Also, in the data set on Plasmodium falciparum [12], the ED50 was above 50 mg/kg. Besides, in the data set with Plasmodium falciparum [12], the ED90 is above 50 mg/kg. In the data set on Plasmodium falciparum [2], the IC50 was found to be 66 nM. In addition, the fraction unbound in data set [17] and in data set [21] was 0.01 in each case. In [5], this compound yielded a chromatographic logD of 3.83. In addition, in [22], the half-life was 166 min. Further, in data set [23], the Vd came out at 6.47 L/kg.
With `CC(Oc1ccccc1)C(=O)Nc1cc(C(F)(F)F)ccc1-n1cncn1` (racemic), the half-life at 100 µM in data set [3] was 24.7 min; in [4], 12 min. The CLint in the data set with Liver came to 5.3 mL/min/g; with Liver microsomes it was 2.9 mL/min/g. Besides, in the data set on Plasmodium falciparum [2], the IC50 was 897 nM.
